From patent US7312248B2, “Control of parasites in animals by the use of novel trifluoromethanesulfonanilide oxime ether derivatives” (Schering-Plough Animal Health Corporation, priority 2004, dated 2007)
Read-outs that look alike come from different tables or passages of the source.

Tests used:
Haemonchus contortus = Haemonchus contortus larvacidal (larval development) assay; format: in vivo; details: 144 h, read-out: Haemonchus contortus LD99
Method: a) Haemonchus Contortus Larvacidal Assay:
The effect of compounds on larval development was determined in the assay described by Gill et al. (1995, International Journal of Parasitology 25:463-470). Briefly, in this assay, nematode eggs were applied to the surface of an agar matrix containing the test compound and then allowed to develop through to the L3, infective stage (6 days). The wells for each dilution of every compound (from highest to lowest concentration) were inspected to determine the well number corresponding to the lowest concentration at which development was inhibited in 99% of the nematode larvae present (LD99). Because well numbers correspond to a two-fold serial dilution of each compound, a titre (dilution factor) is generated as 2^n−1, where n is the well number. By dividing the highest concentration tested by the titre an LD99 value can be obtained, representing the concentration required to inhibit development in 99% of the nematode larvae present. The compounds supplied as solid and viscous liquids were dissolved in DMSO. Twelve serial one-half dilutions in DMSO solution were prepared from the stock solution, each of which was then diluted ⅕ with water. Aliquots (10 μl) of each dilution were transferred to the bioassay plates to give a final concentration range of 0.024 to 50 μg/ml.

[1] = test system: cat flea (Ctenocephalides felis); test: whole plant or invertebrate; format: in vivo; details: Ctenocephalides felis
Method in brief: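 Single-dose screen at 1.26 μg/cm^2: acetone solution dried for 24 h on a Coatasil-treated 159 mm^2 flask base, then 15 adult cat fleas aged 3-7 days per flask, four or more replicates, acetone control. Percent dead, meaning not moving or unable to right themselves, recorded after 8, 24 and/or 48 h at 25 °C and 75% RH.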

[2] = 8 h, read-out: C. felis Mortality (%) 8 h, 8 h, Laboratory 1 A data
[3] = 24 h, read-out: C. felis Mortality (%) 24 h, 24 h, Laboratory 1 A data
[4] = 8 h, read-out: C. felis Mortality (%) 8 h, 8 h, Laboratory 2 B data
[5] = 24 h, read-out: C. felis Mortality (%) 24 h, 24 h, Laboratory 2 B data
[6] = lowest concentration inhibiting development in 99% of larvae, eggs to L3, 6 days, range 0.024 to 50 μg/ml
[7] = 8 h, read-out: Ctenocephalides felis Mortality (%) 8 h
[8] = 24 h, read-out: Ctenocephalides felis Mortality (%) 24 h

Row | SMILES | IC99 (Haemonchus contortus) [µg/mL] | mortality at 1.26 µg/cm2, 1.26 µg/cm2 [1, 2] [%] | further results
1 | CCC/C(=N\OCc1ccc(C(F)(F)F)cc1)c1cc(Cl)ccc1NS(=O)(=O)C(F)(F)F [Compound 92] | 1.6 | 36 | –
2 | CC/C(=N\OC/C=C/c1ccccc1)c1cc(Cl)ccc1NS(=O)(=O)C(F)(F)F [Compound 85] | 1.6 | 6 | –
3 | CC/C(=N\OCc1ccc(C(C)(C)C)cc1)c1cc(Cl)ccc1NS(=O)(=O)C(F)(F)F [Compound 5] | 3.3 | 8 | –
4 | CC/C(=N\Oc1ccc(Br)cc1)c1cc(Cl)ccc1NS(=O)(=O)C(F)(F)F [Compound 138] | 1.7 | – | mortality at 1.26 µg/cm2, 1.26 µg/cm2 [1, 3]: 78%
5 | O=S(=O)(Nc1ccc(Cl)cc1/C(=N/OCc1ccc(Cl)cc1Cl)c1ccccc1)C(F)(F)F [Compound 61] | 1.7 | 17 | –
6 | O=S(=O)(Nc1ccc(Cl)cc1/C=N/OCc1ccc(Cl)cc1Cl)C(F)(F)F [Compound 67] | 0.9 | 12 | –
7 | O=S(=O)(Nc1ccc(Cl)cc1/C(=N/OCc1ccc(C(F)(F)F)cc1C(F)(F)F)c1ccccc1)C(F)(F)F [Compound 78] | 1.8 | 21 | –
8 | CCC/C(=N\OCc1ccc(C(F)(F)F)cc1C(F)(F)F)c1cc(Cl)ccc1NS(=O)(=O)C(F)(F)F [Compound 98] | 1.4 | 79 | –
9 | C/C(=N\OCC=C(Cl)Cl)c1cc(Cl)ccc1NS(=O)(=O)C(F)(F)F [Compound 38] | 0.9 | 8 | –
10 | CCC/C(=N\OCC1CCCCC1)c1cc(Cl)ccc1NS(=O)(=O)C(F)(F)F [Compound 111] | 5 | – | mortality at 1.26 µg/cm2, 1.26 µg/cm2 [1, 4]: 9%; mortality at 1.26 µg/cm2, 1.26 µg/cm2 [1, 5]: 70%
11 | CC/C(=N\Oc1ccc(C#N)cc1)c1cc(Cl)ccc1NS(=O)(=O)C(F)(F)F [Compound 136] | 2.5 | – | mortality at 1.26 µg/cm2, 1.26 µg/cm2 [1, 3]: 74%
12 | O=S(=O)(Nc1ccc(Cl)cc1-c1cc(-c2ccc(Cl)cc2Cl)on1)C(F)(F)F [Compound 229, N-{4-chloro-2-[5-(2,4-dichlorophenyl)isoxazol-3-yl]phenyl}trifluoromethanesulfonamide] | – | – | IC99 (Haemonchus contortus; [6]): 0.09 µg/mL; mortality at 1.26 µg/cm2 [1, 7]: 2%; mortality at 1.26 µg/cm2 [1, 8]: 7%
13 | O=S(=O)(Nc1ccc(Cl)cc1-c1cc(-c2ccc(F)cc2)on1)C(F)(F)F [Compound 228] | – | – | IC99 (Haemonchus contortus; [6]): 0.4 µg/mL; mortality at 1.26 µg/cm2 [1, 7]: 3%; mortality at 1.26 µg/cm2 [1, 8]: 3%
14 | C/C(=N\Oc1ccc(Cl)c(Cl)c1)c1cc(Cl)ccc1NS(=O)(=O)C(F)(F)F [Compound 140] | 0.7 | – | mortality at 1.26 µg/cm2, 1.26 µg/cm2 [1, 3]: 71%
15 | C/C(=N\OCc1ccc(Cl)cc1)c1cc(Cl)ccc1NS(=O)(=O)C(F)(F)F [Compound 16] | 1.3 | – | mortality at 1.26 µg/cm2, 1.26 µg/cm2 [1, 4]: 90%; mortality at 1.26 µg/cm2, 1.26 µg/cm2 [1, 5]: 100%
16 | C/C(=N\OCc1cc(C(F)(F)F)ccc1C(F)(F)F)c1cc(Cl)ccc1NS(=O)(=O)C(F)(F)F [Compound 120, N-{2-[1-(2,5-bistrifluoromethylbenzyloxyimino)ethyl]-4-chlorophenyl}trifluoromethanesulfonamide] | 0.5 | 2 | –
17 | O=S(=O)(Nc1ccc(Cl)cc1/C(=N/OCc1ccc(Cl)c(Cl)c1)c1ccccc1)C(F)(F)F [Compound 87, N-{4-chloro-2-[(3,4-dichlorobenzyloxyimino)phenylmethyl]phenyl}trifluoromethanesulfonamide] | 1.3 | 5 | –
18 | CC(C)/C(=N\OCc1ccc(C(F)(F)F)cc1)c1cc(Cl)ccc1NS(=O)(=O)C(F)(F)F [Compound 108] | 1.3 | 12 | –
19 | C/C(=N\OCc1ccc(C#N)cc1)c1cc(Cl)ccc1NS(=O)(=O)C(F)(F)F [Compound 73] | 5 | 1 | –
20 | O=S(=O)(Nc1ccc(Cl)cc1-c1cc(-c2ccc(Cl)c(Cl)c2)on1)C(F)(F)F [Compound 230] | – | – | IC99 (Haemonchus contortus; [6]): 0.4 µg/mL; mortality at 1.26 µg/cm2 [1, 7]: 8%; mortality at 1.26 µg/cm2 [1, 8]: 15%
